From patent US11208412B2 (DAEGU-GYEONGBUK MEDICAL INNOVATION FOUNDATION, priority 2017, dated 2021)

Columns and labels:
[1] = target: T1, kinases of the scanMAX Kinase assay panel (Homo sapiens, UniProt O00329); experiment: Kinase selectivity, DiscoverX scanMAX Kinase assay panel (% control); type: binding; settings: PIK3CD; 1 uM
T1 construct: purchased DiscoverX Co. (contract measurement) scanMAX Kinase assay panel
T1 sequence (O00329 1-1044): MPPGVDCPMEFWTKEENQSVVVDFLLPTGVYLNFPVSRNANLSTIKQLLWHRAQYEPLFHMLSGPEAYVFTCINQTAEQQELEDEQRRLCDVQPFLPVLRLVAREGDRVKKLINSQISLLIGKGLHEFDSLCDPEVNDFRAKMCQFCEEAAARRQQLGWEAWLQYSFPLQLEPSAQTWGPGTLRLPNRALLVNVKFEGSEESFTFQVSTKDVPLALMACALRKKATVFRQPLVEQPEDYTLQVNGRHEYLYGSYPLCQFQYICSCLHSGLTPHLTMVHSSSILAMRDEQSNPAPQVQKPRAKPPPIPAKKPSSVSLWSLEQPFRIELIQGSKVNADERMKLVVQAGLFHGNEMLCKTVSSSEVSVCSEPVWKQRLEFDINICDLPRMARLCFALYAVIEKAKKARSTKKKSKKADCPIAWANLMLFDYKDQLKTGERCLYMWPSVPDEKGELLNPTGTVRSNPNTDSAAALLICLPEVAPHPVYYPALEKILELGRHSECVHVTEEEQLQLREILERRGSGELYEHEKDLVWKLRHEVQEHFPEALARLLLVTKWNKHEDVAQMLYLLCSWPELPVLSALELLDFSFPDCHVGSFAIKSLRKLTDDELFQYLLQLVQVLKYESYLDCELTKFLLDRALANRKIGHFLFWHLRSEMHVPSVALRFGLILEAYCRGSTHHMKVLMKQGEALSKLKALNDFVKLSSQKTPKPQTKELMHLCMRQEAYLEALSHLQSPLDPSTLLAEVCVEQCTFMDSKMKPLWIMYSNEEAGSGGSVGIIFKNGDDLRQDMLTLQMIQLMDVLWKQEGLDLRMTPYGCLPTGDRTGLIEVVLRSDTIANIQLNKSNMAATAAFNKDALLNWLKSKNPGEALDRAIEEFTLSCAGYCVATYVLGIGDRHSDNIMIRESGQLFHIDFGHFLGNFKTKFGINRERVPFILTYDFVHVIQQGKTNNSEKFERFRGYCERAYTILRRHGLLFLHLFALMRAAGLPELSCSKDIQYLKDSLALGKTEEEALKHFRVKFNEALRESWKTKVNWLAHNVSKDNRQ
How it was run: (§1)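 A 1 uM DMSO solution of compound was applied across the panel kinases, and results were expressed as % control relative to DMSO (100%) and a positive control (0%).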

[2] = target: T2, kinases of the scanMAX Kinase assay panel (Homo sapiens, UniProt Q9HBY8); experiment: as above; type: binding; settings: kinase SGK2; 1 uM in DMSO
T2 construct: purchased DiscoverX Co. (contract measurement) scanMAX Kinase assay panel
T2 sequence (Q9HBY8 1-367): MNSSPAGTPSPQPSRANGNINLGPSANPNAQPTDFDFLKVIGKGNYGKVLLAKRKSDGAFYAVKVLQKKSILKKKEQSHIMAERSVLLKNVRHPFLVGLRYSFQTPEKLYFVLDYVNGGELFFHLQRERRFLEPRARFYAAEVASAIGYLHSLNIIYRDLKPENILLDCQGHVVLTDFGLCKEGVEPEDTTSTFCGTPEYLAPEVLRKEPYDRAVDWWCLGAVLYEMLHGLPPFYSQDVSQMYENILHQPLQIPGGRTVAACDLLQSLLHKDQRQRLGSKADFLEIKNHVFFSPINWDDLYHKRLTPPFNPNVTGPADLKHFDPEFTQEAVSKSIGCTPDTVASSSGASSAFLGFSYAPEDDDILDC
How it was run: as §1

SMILES | remaining binding at 1 µM [1] [%] | remaining binding at 1 µM [2] [%]
CNc1nc(Nc2ccc(C(=O)N3CCOCC3)cc2OC)nc2[nH]cc(C#N)c12 [Example 1, 2-((2-methoxy-4-(morpholine-4-carbonyl)phenyl)amino)-4-(methylamino)-7H-pyrrolo[2,3-d]pyrimidine-5-carbonitrile] | 99 | 82
CC1(Nc2nc(Nc3cnn([C@H]4CCN(C5COC5)C[C@@H]4F)c3Cl)nc3[nH]cc(C#N)c23)CC1 [Example 52, 2-((5-chloro-1-((3S,4S)-3-fluoro-1-(oxetane-3-yl)piperidine-4-yl)-1H-pyrazole-4-yl)amino)((1-methylcyclopropyl)amino)-7H-pyrrolo[2,3-d]pyrimidine-5-carbonitrile] | 9.4 | 74
CCNc1nc(Nc2ccc(C(=O)N3CCC(N4CCOCC4)CC3)cc2OC)nc2[nH]cc(C(F)(F)F)c12 [Example 104, (4-((4-(ethylamino)-5-(trifluoromethyl)-7H-pyrrolo[2,3-d]pyrimidine-2-yl)amino)-3-methoxyphenyl)(4-morpholinopiperidine-1-yl)methanone] | 78 | 100
